US20140073602A9, “NITRIC OXIDE DELIVERING HYDROXYALKYL STARCH DERIVATIVES” (FRESENIUS KABI DEUTSCHLAND GMBH, priority 2010, published 2014)

Tested on: phenylephrine-precontracted aortic rings from rats
Assay: Vasodilatory influence in isolated rat aortic ring preparations
Settings: first set; 1 microM
Description: The aim of the experiments was to test for the vasodilatory influence of SNO-HES in isolated rat aortic ring preparations. Isolated aortic rings from rats were precontracted by phenylephrine. SNO-HES-induced relaxations were determined after defined incubation periods. In order to completely relax the aorta and to define the 100% relaxation level, papaverine was applied at the end of an experiment. Two sets of experiments were performed:
Aortic ring preparations from adult rats (male, Lewis, 278-307 g; Janvier, St Berthevin Cedex, France) were used to perform the experiments.
All HES derivatives were supplied by Fresenius-Kabi Deutschland GmbH. SNO-HES derivatives CNO1 and CNO8 (both prepared according to GP3, table 8) were tested alongside with their precursor SH-HES (D31, prepared according to GP2.1 and GP2.2, table 6) and the unmodified HES (HES17, table 1). The first set of experiments was performed with SNO-HES derivative CNO1, the second set with CNO8.
Physiological solution contained (in mM) NaCl 120, KCl 5.5, MgSO4 1.2, KH2PO4 1.2, CaCl2 2.5, NaHCO3 25 and glucose 11. The solution was maintained at 37° C. and gassed with carbogen (95% O2+5% CO2 (v/v)). Phenylephrine (batch 050M1663) and papaverine (batch 010M1565) purchased from Sigma (Munich, Germany) were dissolved in distilled water to prepare stocks of 1 mM and 50 mM, respectively. […]

Structure (SMILES): N[C@@H](CCC(=O)N[C@@H](CSN=O)C(=O)NCC(=O)O)C(=O)O [GSNO, S-nitrosogluthatione]
- Relaxation of phenylephrine-contracted aortic rings (in words): immediately and completely relaxed
